19 compounds from ChEMBL document CHEMBL1155229, “Physical binding pocket induction for affinity prediction” (J Med Chem, 2009) can be followed below.

Structures are written as SMILES.

The first assay concerns the target T1, 5-hydroxytryptamine receptor 1A (Homo sapiens, UniProt P08908).
T1 sequence (P08908 whole entry): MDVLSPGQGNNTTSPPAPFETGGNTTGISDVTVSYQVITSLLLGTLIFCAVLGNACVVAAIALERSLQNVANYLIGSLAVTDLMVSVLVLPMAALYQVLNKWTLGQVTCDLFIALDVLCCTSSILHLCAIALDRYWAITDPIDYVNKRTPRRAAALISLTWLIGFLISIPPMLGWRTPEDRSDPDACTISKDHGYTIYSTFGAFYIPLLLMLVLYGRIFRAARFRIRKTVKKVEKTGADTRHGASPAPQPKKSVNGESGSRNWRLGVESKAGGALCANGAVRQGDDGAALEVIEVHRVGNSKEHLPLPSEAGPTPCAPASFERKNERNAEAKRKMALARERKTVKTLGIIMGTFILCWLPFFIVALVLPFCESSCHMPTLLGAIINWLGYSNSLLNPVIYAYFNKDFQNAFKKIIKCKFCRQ
The assay can be described thus: Binding affinity to 5HT1A receptor. The following applies: read-out: Kd.
Consider `Fc1ccc([C@@H]2CCNC[C@H]2COc2ccc3c(c2)OCO3)cc1` [PAROXETINE], for which the Kd turned out to be 30 µM.

The assay is the same for the next values; noted with them: read-out: pKd (converted).
For the compound `COc1cccc2c1C[C@@H]1CCN(CC3CC3)[C@@H]1C2`, the Kd is 0.794 µM.
Same read-out and setting: under `CCCN1CC[C@H]2c3c(cccc3OC)CC[C@H]21` stands 0.0002 µM; under `O=C(NCCN1CCOCC1)c1ccc(Cl)cc1` [MOCLOBEMIDE], 5.01 µM; under `COc1cccc2c1C[C@H]1CCN(CC3CC3)[C@@H]1C2`, 0.0316 µM.
Still for that read-out and setting: the figure for `CCCN(CCC)[C@H]1CCc2c(F)ccc(O)c2C1` is 0.0251 µM; for `C[C@H]1[C@H](c2ccccc2)OCCN1C` [PHENDIMETRAZINE] it is 12.6 µM; for `CN(C)CCc1c[nH]c2ccc(O)cc12` [BUFOTENINE] it is 0.00316 µM.
On the same count and under the same terms, under `Clc1cncc(N2CCNCC2)n1` [MK-212] stands 0.794 µM; under `Fc1ccc([C@@H]2CCNC[C@H]2COc2ccc3c(c2)OCO3)cc1` [PAROXETINE], 31.6 µM.
As to `CN1C[C@@H](NS(=O)(=O)N(C)C)C[C@@H]2c3cccc4c3c(cn4C)C[C@H]21` [MESULERGINE], the Kd is 0.158 µM.
On the same count and under the same terms, the figure for `Cc1nc2ccccn2c(=O)c1CCN1CCC(C(=O)c2ccc(F)cc2)CC1` [PIRENPERONE] is 2.51 µM.
On the same count and under the same terms, the figure for `FC(F)(F)c1cccc(C2CNCCO2)c1` (stereo not given) [FLUMEXADOL] is 0.251 µM; for `CCc1nn(CCCN2CCN(c3cccc(Cl)c3)CC2)c(=O)n1CCOc1ccccc1` [NEFAZODONE] it is 0.158 µM; for `Clc1cccc(N2CCNCC2)c1` [CHLOROPHENYLPIPERAZINE] it is 0.1 µM.
For the compound `C=CCN1CC[C@H]2c3ccccc3CC[C@H]21`, the Kd was 0.001 µM.
Same read-out and setting: the figure for `C=CCN1C[C@H]2c3c(O)cccc3CC[C@H]21` is 0.000316 µM; for `O=C1c2ccccc2S(=O)(=O)N1CCCCN1CCN(c2ncccn2)CC1` [IPSAPIRONE] it is 0.00398 µM; for `COc1ccccc1N1CCN(C[C@@H](C(=O)NC(C)(C)C)c2ccccc2)CC1` it is 0.00126 µM.
As to `CCCN1CC[C@@H]2c3c(cccc3OC)CC[C@@H]21`, the Kd was 0.2 µM.
